In ChEMBL document CHEMBL4130415, “Discovery of new MD2-targeted anti-inflammatory compounds for the treatment of sepsis and acute lung injury” (Eur J Med Chem, 2017):
Activity calls are given as the source filed them. No cut-off for these calls is given here.

Legend:
Peritoneal macrophage [1] = experiment: Antiinflammatory activity in ICR mouse primary peritoneal macrophages assessed as inhibition of LPS-induced TNF-alpha production at 10 uM pretreated for 2 hrs followed by LPS challenge measured after 22 hrs by ELISA relative to control; type: functional
Peritoneal macrophage [2] = experiment: Antiinflammatory activity in ICR mouse primary peritoneal macrophages assessed as inhibition of LPS-induced IL-6 production at 10 uM pretreated for 2 hrs followed by LPS challenge measured after 22 hrs by ELISA relative to control; type: functional
Peritoneal macrophage [3] = experiment: Antiinflammatory activity in ICR mouse primary peritoneal macrophages assessed as inhibition of LPS-induced TNF-alpha production pretreated for 2 hrs followed by LPS challenge measured after 22 hrs by ELISA; type: functional, cell-based
Peritoneal macrophage [4] = experiment: Antiinflammatory activity in ICR mouse primary peritoneal macrophages assessed as inhibition of LPS-induced IL-6 production pretreated for 2 hrs followed by LPS challenge measured after 22 hrs hrs by ELISA; type: functional, cell-based
Peritoneal macrophage [5] = experiment: Antiinflammatory activity in ICR mouse primary peritoneal macrophages assessed as inhibition of Pam3CK-induced TNF-alpha production at 10 uM pretreated for 2 hrs followed by Pam3CK challenge measured after 12 hrs by ELISA; type: functional, cell-based
Mus musculus [6] = experiment: Antiinflammatory activity in LPS-induced C57BL/6 mouse assessed as mouse survival at 10 mg/kg, iv pretreated for 15 mins followed by LPS challenge measured after 7 days; type: functional, organism-based
Mus musculus [7] = experiment: Antiinflammatory activity in C57BL/6 mouse assessed as reduction in LPS-induced total protein level in bronchoalveolar lavage fluid at 10 mg/kg, iv pretreated for 15 mins followed by LPS challenge measured after 6 hrs; type: functional, organism-based
Mus musculus [8] = experiment: Antiinflammatory activity in C57BL/6 mouse assessed as reduction in LPS-induced total cell numbers in bronchoalveolar lavage fluid at 10 mg/kg, iv pretreated for 15 mins followed by LPS challenge measured after 6 hrs by flow cytometric analysis; type: functional, organism-based
Mus musculus [9] = experiment: Antiinflammatory activity in C57BL/6 mouse assessed as reduction in LPS-induced wet to dry lung edema ratio at 10 mg/kg, iv pretreated for 15 mins followed by LPS challenge measured after 6 hrs; type: functional, organism-based
Mus musculus [10] = experiment: Antiinflammatory activity in C57BL/6 mouse assessed as reduction in LPS-induced TNF-alpha mRNA level in bronchoalveolar lavage fluid at 10 mg/kg, iv pretreated for 15 mins followed by LPS challenge measured after 6 hrs by qPCR analysis; type: functional, organism-based
Mus musculus [11] = experiment: Antiinflammatory activity in C57BL/6 mouse assessed as reduction in LPS-induced IL-6 mRNA level in bronchoalveolar lavage fluid at 10 mg/kg, iv pretreated for 15 mins followed by LPS challenge measured after 6 hrs by qPCR analysis; type: functional, organism-based
Mus musculus [12] = experiment: Antiinflammatory activity in C57BL/6 mouse assessed as reduction in LPS-induced IL-1beta mRNA level in bronchoalveolar lavage fluid at 10 mg/kg, iv pretreated for 15 mins followed by LPS challenge measured after 6 hrs by qPCR analysis; type: functional, organism-based
Mus musculus [13] = experiment: Antiinflammatory activity in C57BL/6 mouse assessed as reduction in LPS-induced inflammatory cell infiltration in lung at 10 mg/kg, iv pretreated for 15 mins followed by LPS challenge measured after 6 hrs by hematoxylin and eosin staining-based light microscopic analysis; type: functional, organism-based
Mus musculus [14] = experiment: Antiinflammatory activity in C57BL/6 mouse assessed as reduction in LPS-induced interalveolar septal thickening in lung at 10 mg/kg, iv pretreated for 15 mins followed by LPS challenge measured after 6 hrs by hematoxylin and eosin staining-based light microscopic analysis; type: functional, organism-based
Mus musculus [15] = experiment: Antiinflammatory activity in C57BL/6 mouse assessed as reduction in LPS-induced interstitial edema in lung at 10 mg/kg, iv pretreated for 15 mins followed by LPS challenge measured after 6 hrs by hematoxylin and eosin staining-based light microscopic analysis; type: functional, organism-based
Mus musculus [16] = experiment: Antiinflammatory activity in LPS-induced C57BL/6 mouse assessed as increase in immunoreactivity to CD68 in lung at 10 mg/kg, iv pretreated for 15 mins followed by LPS challenge measured after 6 hrs by immunohistochemical analysis; type: functional, organism-based

Q: Which results are given for `COc1cc(OC)c(/C=C/C(=O)/C=C/c2cccc(OC)c2OC)c(OC)c1`?
A: inhibition (Peritoneal macrophage [1]): inactive; inhibition (Peritoneal macrophage [2]): inactive

Q: For `COc1cccc(/C=C/C(=O)/C=C/c2ccc(O)c(Br)c2)c1OC`, which IC50 (Peritoneal macrophage [3]) is on record?
A: 2.96 µM

Q: What about the inhibition (Peritoneal macrophage [3]) of the same molecule?
A: Dose-dependent effect

Q: What about the IC50 (Peritoneal macrophage [4]) of the same molecule?
A: 3.62 µM

Q: And the inhibition (Peritoneal macrophage [4])?
A: Dose-dependent effect

Q: What about the inhibition (Peritoneal macrophage [5]) of the same molecule?
A: inactive

Q: What about the Activity (Mus musculus [6]) of the same molecule?
A: Active

Q: Which inhibition at 10 µM (Peritoneal macrophage [1]) does the source give for `COc1ccccc1/C=C/C(=O)/C=C/c1ccccc1Br` here?
A: 97.6%

Q: And the inhibition at 10 µM (Peritoneal macrophage [2])?
A: 99.6%

Q: What about the IC50 (Peritoneal macrophage [3]) of the same molecule?
A: 4.73 µM

Q: What about the inhibition (Peritoneal macrophage [3]) of the same molecule?
A: Dose-dependent effect

Q: What about the IC50 (Peritoneal macrophage [4]) of the same molecule?
A: 4.18 µM

Q: What about the inhibition (Peritoneal macrophage [4]) of the same molecule?
A: Dose-dependent effect

Q: What about the inhibition (Peritoneal macrophage [5]) of the same molecule?
A: inactive

Q: And the Activity (Mus musculus [6])?
A: Active

Q: What about the Activity (Mus musculus [7]) of the same molecule?
A: Active

Q: What about the Activity (Mus musculus [8]) of the same molecule?
A: Active

Q: And the Activity (Mus musculus [9])?
A: Active

Q: What about the Activity (Mus musculus [10]) of the same molecule?
A: Active

Q: And the Activity (Mus musculus [11])?
A: Active

Q: What about the Activity (Mus musculus [12]) of the same molecule?
A: Active

Q: And the Activity (Mus musculus [13])?
A: Active

Q: What about the Activity (Mus musculus [14]) of the same molecule?
A: Active

Q: What about the Activity (Mus musculus [15]) of the same molecule?
A: Active

Q: What about the Activity (Mus musculus [16]) of the same molecule?
A: Active

Q: How did the inhibition (Peritoneal macrophage [1]) turn out when `COc1cc(O)c(CC=C(C)C)c(O)c1C(=O)/C=C/c1ccc(O)cc1` was run?
A: inactive

Q: What about the inhibition (Peritoneal macrophage [2]) of the same molecule?
A: inactive

Q: Which results are given for `COc1ccccc1/C=C/C(=O)/C=C/c1ccc(O)c(Br)c1`?
A: IC50 (Peritoneal macrophage [3]): 3.71 µM; inhibition (Peritoneal macrophage [3]): Dose-dependent effect; IC50 (Peritoneal macrophage [4]): 4.13 µM; inhibition (Peritoneal macrophage [4]): Dose-dependent effect; inhibition (Peritoneal macrophage [5]): inactive

Q: `COc1ccc(/C=C2\CCC/C(=C\c3cccc(OC)c3OC)C2=O)c(F)c1` was tested. Which inhibition (Peritoneal macrophage [1]) did it give?
A: inactive

Q: What about the inhibition (Peritoneal macrophage [2]) of the same molecule?
A: inactive

Q: How did the inhibition (Peritoneal macrophage [1]) turn out when `COc1cc(OC)c(/C=C/C(=O)/C=C/c2ccc(OC)c(OC)c2)c(OC)c1` was run?
A: inactive

Q: And the inhibition (Peritoneal macrophage [2])?
A: inactive
